The subject of the test is mouse neuroblastoma N2a cells. Description: Rescue of Aβ42-induced neurotoxicity in N2a cells. In kind it is cell-based. Conditions: N2a cells treated with Aβ42 and compound.

One compound from PMC11445708 (Dalton transactions (Cambridge, England : 2003), 2024) can be followed below.

Each structure is given as a SMILES string.

Turning to `COc1cc(/C=C/C(=O)CC(=O)/C=C/c2ccc(O)c(OC)c2)ccc1O` [curcumin], the “effect on Aβ42-induced neurotoxicity” value is listed as “dramatically increased the Aβ-induced cytotoxicity”.
